The assay has as its system A. fumigatus OE::sltA. The format is cell-based, Aspergillus fumigatus.

As to caspofungin, the “susceptibility of the sltA overexpression strain compared to wild-type” value is “comparable susceptibility to CAS”. As for colistin, the “more tolerance of the sltA overexpression strain compared to wild-type” value was 15%.
